# Assay results taken from PMC8780978, “Antiplatelet and Antithrombotic Effects of Isaridin E Isolated from the Marine-Derived Fungus via Downregulating the PI3K/Akt Signaling Pathway” (Marine Drugs, 2021).
# Test: Tail-bleeding assay
# Conditions: 10 mg/kg, single intragastric dose 3 h before, n = 5 mice
# Method: Mice were assigned randomly to […] and intragastrically administrated with a single dose of vehicle, isaridin E (12.5, 25, 50, or 100 mg/kg), or clopidogrel (10 mg/kg) at 3 h before the cutting-tail experiment. Tails were transected at a distal margin of 5 mm and were immediately immersed into 10 mL of saline at 37 °C. The bleeding time was recorded as when the observed bleeding ceased.
smiles,measurement,value
"COC(=O)[C@H](c1ccccc1Cl)N1CCc2sccc2C1 [clopidogrel, reference compound]",tail bleeding time versus vehicle control,significantly increased
